7 compounds from PubChem BioAssay (NCI) can be followed below.

Some test systems named below: SN12C renal; SNB-75 CNS; COLO 205 colon; NCI-H522 lung; U251 CNS; MALME-3M melanoma; BT-549 breast; MCF7 breast; IGROV1 ovarian; CAKI-1 renal.
What all share (assay): DTP human tumour cell line panel, 48 h

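Five concentrations, 48 hours, 96-well plates. Abbreviation: GI50, concentration required for 50% inhibition of growth. TGI denotes the concentration required for complete inhibition of growth.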

The GI50 is the concentration that inhibits growth by half. The term TGI denotes the concentration at which net growth stops. Read a low TGI as greater sensitivity of the cells. Take `O=c1oc2ccc(Br)cc2c(=O)n1-c1ccc(Cl)cc1F`: the GI50 is 0.82 µM in the test with SN12C renal; 0.572 µM in the test on SNB-75 CNS; 2.99 µM in the test with COLO 205 colon; 0.586 µM with NCI-H522 lung; 1.26 µM with U251 CNS; 0.664 µM in the test on MALME-3M melanoma. The GI50 was 0.48 µM in the test on BT-549 breast, 1.66 µM with MCF7 breast, 0.61 µM in the test with IGROV1 ovarian and 0.821 µM with CAKI-1 renal. Moreover, the TGI in the test on SN12C renal is 5.16 µM; with SNB-75 CNS, 2.8 µM; in the test on COLO 205 colon it was 9.93 µM; in the test on NCI-H522 lung, 7.69 µM; in the test with U251 CNS, over 39.2 µM; with MALME-3M melanoma it was 3.32 µM. In addition, the TGI with BT-549 breast came out at 2.49 µM; in the test with MCF7 breast it was 10.1 µM; in the test with IGROV1 ovarian, 17.2 µM; in the test on CAKI-1 renal it was 4.37 µM.
Regarding `Cc1ccccc1C(C(=O)NC1CCCCC1)N(C(=O)CNc1ccc(C#N)cc1)c1cccc(F)c1` (stereo not given), the GI50 in the test on SN12C renal is 29.7 µM; in the test on SNB-75 CNS, 1.38 µM; in the test with COLO 205 colon it was over 83.2 µM; in the test on NCI-H522 lung, 14.3 µM; in the test on U251 CNS it was 5.28 µM; with MALME-3M melanoma, 15.7 µM. Moreover, the GI50 in the test on BT-549 breast was 32.5 µM; in the test on MCF7 breast, 49.8 µM; in the test on IGROV1 ovarian, 25 µM; in the test with CAKI-1 renal, 14.7 µM. Besides, the TGI with SN12C renal is over 100 µM; in the test with SNB-75 CNS it was 8.97 µM; with COLO 205 colon, over 100 µM; with NCI-H522 lung, over 100 µM; in the test on U251 CNS, over 100 µM; with MALME-3M melanoma, over 91.3 µM. In addition, the TGI with BT-549 breast was over 100 µM; in the test with MCF7 breast, over 100 µM; in the test with IGROV1 ovarian it was over 100 µM; with CAKI-1 renal, over 62.6 µM.
`Cn1c(=O)c(Oc2ccc(F)cc2F)cc2cnc(NC3CCOCC3)nc21`: the GI50 in the test with SN12C renal is over 25 µM; with SNB-75 CNS it was over 15.5 µM; with COLO 205 colon, over 25 µM; with NCI-H522 lung, over 25 µM; in the test on U251 CNS it was over 25 µM; with MALME-3M melanoma, over 25 µM. Also, the GI50 in the test on BT-549 breast, with MCF7 breast, in the test on IGROV1 ovarian and in the test on CAKI-1 renal was over 25 µM throughout. The total growth inhibition concentration (TGI) in the test with SN12C renal, in the test on SNB-75 CNS, with COLO 205 colon, with NCI-H522 lung, in the test with U251 CNS and in the test with MALME-3M melanoma was over 25 µM in each case. Besides, the TGI in the test on BT-549 breast, in the test with MCF7 breast, in the test with IGROV1 ovarian and with CAKI-1 renal was over 25 µM throughout.
With `CC(=O)N[C@@H](Cc1ccc(OP(=O)(O)O)cc1)C(=O)N[C@H]1CCC(=O)N2CCC[C@@H](C(=O)NCc3ccccc3)N2C1=O`, the GI50 in the test on SN12C renal, with SNB-75 CNS, with COLO 205 colon, in the test with NCI-H522 lung, in the test on U251 CNS and in the test on MALME-3M melanoma was over 25 µM throughout. For the same compound, the GI50 with BT-549 breast, in the test with MCF7 breast, with IGROV1 ovarian and with CAKI-1 renal was over 25 µM in each case. Also, the TGI with SN12C renal, with SNB-75 CNS, in the test with COLO 205 colon, in the test with NCI-H522 lung, in the test with U251 CNS and in the test on MALME-3M melanoma was over 25 µM each time. Also, the TGI in the test with BT-549 breast, in the test with MCF7 breast, in the test on IGROV1 ovarian and with CAKI-1 renal was over 25 µM in each case.
Take `COc1cc(C2CC(=O)Nc3c2c(C)nn3-c2nc3ccccc3[nH]2)cc(OC)c1O` (stereo not given): the GI50 in the test on SN12C renal was 3.98 µM; in the test on SNB-75 CNS it was 1.85 µM; in the test on COLO 205 colon, 17.2 µM; in the test with NCI-H522 lung, 2.38 µM; with U251 CNS, 3.49 µM; with MALME-3M melanoma, 1.75 µM. The GI50 in the test with BT-549 breast is 2.6 µM; in the test with MCF7 breast it was 3.13 µM; in the test on IGROV1 ovarian, 2.82 µM; in the test with CAKI-1 renal, 2.36 µM. For the same compound, the TGI was over 72.3 µM in the test on SN12C renal; 5.13 µM in the test on SNB-75 CNS; 46 µM in the test with COLO 205 colon; 5.78 µM in the test with NCI-H522 lung; over 40.8 µM with U251 CNS; 3.74 µM in the test with MALME-3M melanoma. Also, the concentration for total growth inhibition (TGI) is 6.09 µM with BT-549 breast, over 100 µM in the test on MCF7 breast, 7.63 µM in the test on IGROV1 ovarian and 5.44 µM in the test on CAKI-1 renal.
As to `NC(N)=Nc1ccc(/C=C2\C=Cc3ccccc32)cc1`, the GI50 was 2.95 µM with SN12C renal; 2.22 µM in the test with SNB-75 CNS; 1.99 µM in the test with COLO 205 colon; 2.39 µM with NCI-H522 lung; 1.72 µM in the test with U251 CNS; 4.41 µM in the test with MALME-3M melanoma. In addition, the GI50 with BT-549 breast was 3.98 µM; in the test with MCF7 breast, 0.523 µM; with IGROV1 ovarian it was 2.02 µM; in the test with CAKI-1 renal, 2.49 µM. In addition, the concentration for total growth inhibition (TGI) in the test on SN12C renal was found to be 13.2 µM; in the test on SNB-75 CNS, 8.99 µM; with COLO 205 colon it was 3.7 µM; in the test on NCI-H522 lung, 5.79 µM; with U251 CNS it was 3.31 µM; in the test on MALME-3M melanoma, 16.5 µM. Besides, the TGI with BT-549 breast was determined as 26.5 µM; with MCF7 breast, 2.37 µM; with IGROV1 ovarian, 5.12 µM; with CAKI-1 renal it was 8.67 µM.
For the compound `COc1ccc(Cn2cc3c(c2-c2cc(OC)c(OC)c(OC)c2)CCc2c(CO)noc2-3)cc1`, the GI50 was 0.765 µM in the test on SN12C renal; 0.177 µM in the test with SNB-75 CNS; 0.339 µM with COLO 205 colon; 0.206 µM with NCI-H522 lung; 0.349 µM with U251 CNS; 2.46 µM in the test with MALME-3M melanoma. The GI50 is 0.608 µM in the test on BT-549 breast, 0.176 µM with MCF7 breast, 0.596 µM with IGROV1 ovarian and 0.342 µM with CAKI-1 renal. For the same compound, the TGI in the test with SN12C renal amounted to 19.2 µM; in the test with SNB-75 CNS, 24.4 µM; in the test on COLO 205 colon it was 4.28 µM; in the test on NCI-H522 lung, 12.2 µM; in the test with U251 CNS, 15.5 µM; in the test with MALME-3M melanoma it was 29.3 µM. The TGI in the test with BT-549 breast was determined as 7.34 µM; in the test on MCF7 breast, 17.8 µM; in the test on IGROV1 ovarian, 32.1 µM; in the test with CAKI-1 renal, 20.1 µM.
